Reference: the NIST ThermoML archive (doi:10.1021/je700751a)

Experiment: mn = molality of the nth substance listed, in mol/kg
Conditions: 101 kPa, Liquid; for viscosity: Capillary tube (Ostwald / Ubbelohde) method

O=C([O-])[C@H](O)[C@@H](O)C(=O)[O-].[K+].[K+] [dipotassium L-tartrate] + O
Conditions	mass density, 298.15 K [kg/m3]	mass density, 308.15 K [kg/m3]	mass density, 318.15 K [kg/m3]	speed of sound, 298.15 K [m/s]	viscosity, 298.15 K [mPa·s]	viscosity, 308.15 K [mPa·s]	viscosity, 318.15 K [mPa·s]
m1 = 0.0222	–	–	–	–	0.879	0.718	0.595
m1 = 0.0312	–	–	–	–	0.892	0.723	0.601
m1 = 0.0398	1002.88	999.78	995.909	1502.5	–	–	–
m1 = 0.0498	1004.29	1001.18	997.282	1503.7	–	–	–
m1 = 0.0516	–	–	–	–	0.902	0.731	0.609
m1 = 0.0615	1005.99	1002.85	998.942	1505.4	–	–	–
m1 = 0.0697	1007.18	1004.01	1000.09	1506.5	–	–	–
m1 = 0.073	–	–	–	–	0.911	0.737	0.612
m1 = 0.0797	1008.56	1005.39	1001.44	1508.8	–	–	–
m1 = 0.0897	1010.01	1006.8	1002.86	1509.5	–	–	–
m1 = 0.0909	–	–	–	–	0.917	0.75	0.623
m1 = 0.0996	1011.42	1008.21	1004.24	1510.3	–	–	–
m1 = 0.1822	–	–	–	–	0.948	0.773	0.639
m1 = 0.2842	–	–	–	–	0.985	0.799	0.665
m1 = 0.3	1039.02	1035.42	1031.19	1535.7	–	–	–
m1 = 0.3843	–	–	–	–	1.012	0.821	0.693
m1 = 0.4639	–	–	–	–	1.04	0.847	0.705
m1 = 0.4985	1064.81	1060.93	1056.45	1559.5	–	–	–
m1 = 0.6883	–	–	–	–	1.125	0.916	0.764
m1 = 0.6922	1088.8	1084.65	1079.98	1582.2	–	–	–
m1 = 0.8934	1112.36	1108	1103.17	1605.2	–	–	–
m1 = 1.098	–	–	–	–	1.294	1.054	0.879
m1 = 1.284	1155.12	1150.41	1145.3	1648.3	–	–	–
m1 = 1.468	–	–	–	–	1.474	1.206	1.006
m1 = 1.579	1185.12	1180.16	1174.96	1680.5	–	–	–
m1 = 1.878	–	–	–	–	1.71	1.389	1.157
m1 = 1.965	1221.2	1216.05	1210.59	1718.3	–	–	–
m1 = 2.443	1262.59	1257.21	1251.59	1764	–	–	–
m1 = 2.602	–	–	–	–	2.243	1.801	1.483
m1 = 2.923	1299.6	1294.09	1288.34	1805.2	–	–	–
m1 = 3.391	1331.8	1326.15	1320.32	1841.5	–	–	–
m1 = 3.405	–	–	–	–	3.301	2.613	2.12
m1 = 3.858	1362.45	1356.74	1350.83	1876.2	–	–	–
m1 = 4.077	–	–	–	–	4.296	3.367	2.7
m1 = 4.324	1389.87	1384.06	1378.1	1907	–	–	–
m1 = 4.785	1414.66	1408.83	1402.83	1935.4	–	–	–
m1 = 5.188	–	–	–	–	6.378	4.841	3.829
m1 = 5.238	1437.73	1431.81	1425.78	1960.6	–	–	–
m1 = 5.378	–	–	–	–	7.066	5.339	4.176
m1 = 5.692	1459.07	1453.12	1447.06	1984.8	–	–	–
